Patent publication US20260262643A1, “HERBICIDAL BENZOXAZINES” (FMC CORPORATION, priority 2022, published 2026)

What was measured:
barnyardgrass [1] = assay: Test A preemergence; type: in vivo, Echinochloa crusgalli
Excerpt: (§1) Seeds of plant species selected from barnyardgrass (Echinochloa crusgalli), blackgrass (Alopecurus myosuroides), corn (Zea mays), foxtail, giant (giant foxtail, Setaria faberi), goosegrass (Eleusine indica), kochia (Bassia scoparia), oat, wild (wild oat, Avena fatua), pigweed, palmer (palmer amaranth, palmer pigweed, Amaranthus palmeri), Pigweed, Redroot (redroot pigweed, Amaranthus retroflexus), ragweed (common ragweed, Ambrosia artemisiifolia), ryegrass, Italian (italian ryegrass, Lolium multiflorum), soybean (Glycine max), and wheat (Triticum aestivum) were planted into a blend of loam soil and sand and treated preemergence with a directed soil spray using test chemicals formulated in a non-phytotoxic solvent mixture which included a surfactant. At the same time, plants selected from these crops and weed species and also galium (catchweed bedstraw, Galium aparine) and horseweed (Erigeron canadensis) were planted in pots containing the same blend of loam soil and sand and treated with postemergence applications of test chemicals formulated in the same manner. Plants ranged in height from 2 to 10 cm and were in the one- to two-leaf stage for the postemergence treatment. Treated plants and untreated controls were maintained in a greenhouse for 10 days, after which time all treated plants were compared to untreated controls and visually evaluated for injury. Plant response ratings, summarized in Table A, are based on a 0 to 100 scale where 0 is no effect and 100 is complete control. A dash (-) response means no test result.

blackgrass [2] = assay: Test A preemergence; type: in vivo, Alopecurus myosuroides
Outline: (§2)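 Greenhouse pot test, 10 days. Compound (non-phytotoxic solvent, surfactant) sprayed on soil at seeding or on seedlings at one- to two-leaf stage. Visual injury rated 0–100 against untreated plants.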

foxtail, giant [3] = assay: Test A preemergence; type: in vivo, Setaria faberi
Outline: as §2

kochia [4] = assay: Test A preemergence; type: in vivo, Bassia scoparia
Outline: as §2

pigweed, palmer [5] = assay: Test A preemergence; type: in vivo, Amaranthus palmeri
Outline: as §2

ragweed [6] = assay: Test A preemergence; type: in vivo, Ambrosia artemisiifolia
Outline: as §2

ryegrass, Italian [7] = assay: Test A preemergence; type: in vivo, Lolium multiflorum
Outline: as §2

barnyardgrass [8] = assay: Test A postemergence; type: in vivo, Echinochloa crusgalli
Excerpt: as §1

blackgrass [9] = assay: Test A postemergence; type: in vivo, Alopecurus myosuroides
Outline: as §2

foxtail, giant [10] = assay: Test A postemergence; type: in vivo, Setaria faberi
Outline: as §2

kochia [11] = assay: Test A postemergence; type: in vivo, Bassia scoparia
Outline: as §2

pigweed, palmer [12] = assay: Test A postemergence; type: in vivo, Amaranthus palmeri
Outline: as §2

ragweed [13] = assay: Test A postemergence; type: in vivo, Ambrosia artemisiifolia
Outline: as §2

ryegrass, Italian [14] = assay: Test A postemergence; type: in vivo, Lolium multiflorum
Outline: as §2

galium = assay: Test A postemergence; type: in vivo, Galium aparine
Outline: as §2

horseweed = assay: Test A postemergence; type: in vivo, Erigeron canadensis
Outline: as §2

corn [15] = assay: Test A preemergence; type: in vivo, Zea mays; conditions: visual injury after 10 days, 0 to 100 scale, 0 is no effect, 100 is complete control
Outline: as §2

oat, wild [16] = assay: Test A preemergence; type: in vivo, Avena fatua; conditions: visual injury after 10 days, 0 to 100 scale, 0 is no effect, 100 is complete control
Outline: as §2

soybean [17] = assay: Test A preemergence; type: in vivo, Glycine max; conditions: visual injury after 10 days, 0 to 100 scale, 0 is no effect, 100 is complete control
Outline: as §2

wheat [18] = assay: Test A preemergence; type: in vivo, Triticum aestivum; conditions: visual injury after 10 days, 0 to 100 scale, 0 is no effect, 100 is complete control
Outline: as §2

corn [19] = assay: Test A postemergence; type: in vivo, Zea mays; conditions: postemergence, 10 days
Outline: as §2

oat, wild [20] = assay: Test A postemergence; type: in vivo, Avena fatua; conditions: postemergence, 10 days
Outline: as §2

soybean [21] = assay: Test A postemergence; type: in vivo, Glycine max; conditions: postemergence, 10 days
Outline: as §2

wheat [22] = assay: Test A postemergence; type: in vivo, Triticum aestivum; conditions: postemergence, 10 days
Outline: as §2

[23] = 1000 g ai/ha, 0 to 100 scale (0 no effect, 100 complete control), 10 days
[24] = 1000 g ai/ha, Postemergence, 0 to 100 scale
[25] = 125 g ai/ha, visual injury after 10 days, 0 to 100 scale, 0 is no effect, 100 is complete control
[26] = 500 g ai/ha, visual injury after 10 days, 0 to 100 scale, 0 is no effect, 100 is complete control
[27] = 125 g ai/ha, postemergence, 10 days, 0 to 100 scale, 0 no effect, 100 complete control
[28] = 500 g ai/ha, postemergence, 10 days, visual injury, 0 to 100 scale (0 no effect, 100 complete control)
[29] = 125 g ai/ha, 0 to 100 scale, 0 no effect, 100 complete control
[30] = 500 g ai/ha, visual injury, 0 to 100 scale (0 no effect, 100 complete control)

Cc1cccc2c1O[C@@H](C)CN2C(=O)c1cccc(-n2cc(C(F)(F)F)cn2)c1 [Compound 130]
10: Plant response rating, Barnyardgrass (barnyardgrass [1]; [23]) | Plant response rating, Blackgrass (blackgrass [2]; [23])
0: Plant response rating, Foxtail, Giant (foxtail, giant [3]; [23]) | Plant response rating, Kochia (kochia [4]; [23]) | Plant response rating, Pigweed, Palmer (pigweed, palmer [5]; [23]) | Plant response rating, Ragweed (ragweed [6]; [23]) | Plant response rating, Ryegrass, Italian (ryegrass, Italian [7]; [23]) | Plant response rating, Barnyardgrass (barnyardgrass [8]; [24]) | Plant response rating, Blackgrass (blackgrass [9]; [24]) | Plant response rating, Foxtail, Giant (foxtail, giant [10]; [24]) | Plant response rating, Kochia (kochia [11]; [24]) | Plant response rating, Pigweed, Palmer (pigweed, palmer [12]; [24]) | Plant response rating, Ragweed (ragweed [13]; [24]) | Plant response rating, Ryegrass, Italian (ryegrass, Italian [14]; [24]) | Plant response rating, Galium (galium; [24]) | Plant response rating, Horseweed (horseweed; [24])

Cc1cccc2c1O[C@@H](C)CN2C(=O)c1cccc(-n2cc(F)cn2)c1 [Compound 131]
40: Plant response rating, Kochia (kochia [11]; [24])
0: Plant response rating, Kochia (kochia [4]; [23]) | Plant response rating, Pigweed, Palmer (pigweed, palmer [5]; [23]) | Plant response rating, Ragweed (ragweed [6]; [23]) | Plant response rating, Blackgrass (blackgrass [9]; [24]) | Plant response rating, Pigweed, Palmer (pigweed, palmer [12]; [24]) | Plant response rating, Ragweed (ragweed [13]; [24]) | Plant response rating, Ryegrass, Italian (ryegrass, Italian [14]; [24]) | Plant response rating, Horseweed (horseweed; [24])
60: Plant response rating, Foxtail, Giant (foxtail, giant [3]; [23]) | Plant response rating, Ryegrass, Italian (ryegrass, Italian [7]; [23])
10: Plant response rating, Barnyardgrass (barnyardgrass [1]; [23]) | Plant response rating, Blackgrass (blackgrass [2]; [23]) | Plant response rating, Barnyardgrass (barnyardgrass [8]; [24]) | Plant response rating, Foxtail, Giant (foxtail, giant [10]; [24])
20: Plant response rating, Galium (galium; [24])

Cc1cccc2c1O[C@@H](C)CN2C(=O)c1cccc(-n2cc(Cl)cn2)c1 [Compound 132]
10: Plant response rating, Barnyardgrass (barnyardgrass [1]; [23]) | Plant response rating, Foxtail, Giant (foxtail, giant [10]; [24])
0: Plant response rating, Blackgrass (blackgrass [2]; [23]) | Plant response rating, Foxtail, Giant (foxtail, giant [3]; [23]) | Plant response rating, Kochia (kochia [4]; [23]) | Plant response rating, Pigweed, Palmer (pigweed, palmer [5]; [23]) | Plant response rating, Ragweed (ragweed [6]; [23]) | Plant response rating, Ryegrass, Italian (ryegrass, Italian [7]; [23]) | Plant response rating, Barnyardgrass (barnyardgrass [8]; [24]) | Plant response rating, Blackgrass (blackgrass [9]; [24]) | Plant response rating, Pigweed, Palmer (pigweed, palmer [12]; [24]) | Plant response rating, Ragweed (ragweed [13]; [24]) | Plant response rating, Ryegrass, Italian (ryegrass, Italian [14]; [24]) | Plant response rating, Galium (galium; [24]) | Plant response rating, Horseweed (horseweed; [24])
20: Plant response rating, Kochia (kochia [11]; [24])

CCOC(=O)c1cnn(-c2cccc(C(=O)N3C[C@H](C)Oc4c(C)cccc43)c2)c1 [Compound 133]
20: Plant response rating, Barnyardgrass (barnyardgrass [8]; [24])
70: Plant response rating, Ryegrass, Italian (ryegrass, Italian [7]; [23])
60: Plant response rating, Barnyardgrass (barnyardgrass [1]; [23]) | Plant response rating, Ryegrass, Italian (ryegrass, Italian [14]; [24]) | Plant response rating, Galium (galium; [24])
80: Plant response rating, Foxtail, Giant (foxtail, giant [3]; [23])
0: Plant response rating, Blackgrass (blackgrass [2]; [23]) | Plant response rating, Kochia (kochia [4]; [23]) | Plant response rating, Blackgrass (blackgrass [9]; [24]) | Plant response rating, Horseweed (horseweed; [24])
30: Plant response rating, Ragweed (ragweed [6]; [23]) | Plant response rating, Foxtail, Giant (foxtail, giant [10]; [24]) | Plant response rating, Pigweed, Palmer (pigweed, palmer [12]; [24])
40: Plant response rating, Pigweed, Palmer (pigweed, palmer [5]; [23]) | Plant response rating, Kochia (kochia [11]; [24]) | Plant response rating, Ragweed (ragweed [13]; [24])

Cc1cccc2c1O[C@@H](C)CN2C(=O)c1cccc(-n2cc(C#N)cn2)c1 [Compound 134]
70: Plant response rating, Foxtail, Giant (foxtail, giant [3]; [23])
50: Plant response rating, Ragweed (ragweed [6]; [23]) | Plant response rating, Foxtail, Giant (foxtail, giant [10]; [24]) | Plant response rating, Kochia (kochia [11]; [24])
90: Plant response rating, Pigweed, Palmer (pigweed, palmer [5]; [23])
10: Plant response rating, Barnyardgrass (barnyardgrass [8]; [24])
0: Plant response rating, Blackgrass (blackgrass [9]; [24]) | Plant response rating, Ragweed (ragweed [13]; [24]) | Plant response rating, Horseweed (horseweed; [24])
80: Plant response rating, Ryegrass, Italian (ryegrass, Italian [7]; [23])
30: Plant response rating, Barnyardgrass (barnyardgrass [1]; [23]) | Plant response rating, Pigweed, Palmer (pigweed, palmer [12]; [24])
20: Plant response rating, Kochia (kochia [4]; [23]) | Plant response rating, Ryegrass, Italian (ryegrass, Italian [14]; [24]) | Plant response rating, Galium (galium; [24])
40: Plant response rating, Blackgrass (blackgrass [2]; [23])

Cc1cccc2c1O[C@@H](C)CN2C(=O)c1cccc(-n2cnc(COC(C)C)n2)c1 [Compound 135]
30: Plant response rating, Barnyardgrass (barnyardgrass [1]; [25]) | Plant response rating, Pigweed, Palmer (pigweed, palmer [5]; [26]) | Plant response rating, Soybean (soybean [17]; 500 g ai/ha) | Plant response rating, Wheat (wheat [18]; 500 g ai/ha) | Plant response rating, Ragweed (ragweed [13]; [28])
0: Plant response rating, Corn (corn [15]; 125 g ai/ha) | Plant response rating, Kochia (kochia [4]; [25]) | Plant response rating, Kochia (kochia [4]; [26]) | Plant response rating, Ragweed (ragweed [6]; [25]) | Plant response rating, Ragweed (ragweed [6]; [26]) | Plant response rating, Wheat (wheat [18]; 125 g ai/ha) | Barnyardgrass plant response rating (barnyardgrass [8]; [27]) | Blackgrass plant response rating (blackgrass [9]; [27]) | Kochia plant response rating (kochia [11]; [27]) | Oat, Wild plant response rating (oat, wild [20]; [29]) | Ragweed plant response rating (ragweed [13]; [27]) | Ryegrass, Italian plant response rating (ryegrass, Italian [14]; [27]) | Horseweed plant response rating (horseweed; [27]) | Plant response rating, Horseweed (horseweed; [28])
50: Plant response rating, Kochia (kochia [11]; [28]) | Plant response rating, Ryegrass, Italian (ryegrass, Italian [14]; [28]) | Plant response rating, Wheat (wheat [22]; [30]) | Galium plant response rating (galium; [27])
60: Plant response rating, Blackgrass (blackgrass [2]; [25]) | Plant response rating, Oat, Wild (oat, wild [16]; 125 g ai/ha) | Plant response rating, Ryegrass, Italian (ryegrass, Italian [7]; [25]) | Plant response rating, Corn (corn [19]; [30])
80: Plant response rating, Blackgrass (blackgrass [2]; [26]) | Plant response rating, Galium (galium; [28])
90: Plant response rating, Oat, Wild (oat, wild [16]; 500 g ai/ha) | Plant response rating, Ryegrass, Italian (ryegrass, Italian [7]; [26]) | Plant response rating, Foxtail, Giant (foxtail, giant [10]; [28]) | Soybean plant response rating (soybean [21]; [29])
20: Plant response rating, Soybean (soybean [17]; 125 g ai/ha) | Plant response rating, Oat, Wild (oat, wild [20]; [30]) | Plant response rating, Pigweed, Palmer (pigweed, palmer [12]; [28])
70: Plant response rating, Barnyardgrass (barnyardgrass [1]; [26]) | Plant response rating, Blackgrass (blackgrass [9]; [28])
100: Plant response rating, Foxtail, Giant (foxtail, giant [3]; [26]) | Plant response rating, Soybean (soybean [21]; [30])
10: Plant response rating, Corn (corn [15]; 500 g ai/ha) | Plant response rating, Foxtail, Giant (foxtail, giant [3]; [25]) | Plant response rating, Pigweed, Palmer (pigweed, palmer [5]; [25]) | Plant response rating, Barnyardgrass (barnyardgrass [8]; [28]) | Corn plant response rating (corn [19]; [29]) | Foxtail, Giant plant response rating (foxtail, giant [10]; [27]) | Pigweed, Palmer plant response rating (pigweed, palmer [12]; [27]) | Wheat plant response rating (wheat [22]; [29])
